Reference: patent US20230183237A1, “COMPETITIVE AND NONCOMPETITIVE INHIBITORS OF THE MUSCARINIC ACETYLCHOLINE RECEPTOR M5” (Vanderbilt University, priority 2020, published 2023)

target: T1, hM5 (Homo sapiens, UniProt P08912); assay: Calcium mobilization concentration-response (IC50 vs EC80 acetylcholine), CHO hM5; assay type: cell-based; conditions: CELL LINE hM5; calcium mobilization, EC80 acetylcholine addition; read-out: IC50
T1 construct: expressed in transfected cells
T1 sequence (P08912 1-532): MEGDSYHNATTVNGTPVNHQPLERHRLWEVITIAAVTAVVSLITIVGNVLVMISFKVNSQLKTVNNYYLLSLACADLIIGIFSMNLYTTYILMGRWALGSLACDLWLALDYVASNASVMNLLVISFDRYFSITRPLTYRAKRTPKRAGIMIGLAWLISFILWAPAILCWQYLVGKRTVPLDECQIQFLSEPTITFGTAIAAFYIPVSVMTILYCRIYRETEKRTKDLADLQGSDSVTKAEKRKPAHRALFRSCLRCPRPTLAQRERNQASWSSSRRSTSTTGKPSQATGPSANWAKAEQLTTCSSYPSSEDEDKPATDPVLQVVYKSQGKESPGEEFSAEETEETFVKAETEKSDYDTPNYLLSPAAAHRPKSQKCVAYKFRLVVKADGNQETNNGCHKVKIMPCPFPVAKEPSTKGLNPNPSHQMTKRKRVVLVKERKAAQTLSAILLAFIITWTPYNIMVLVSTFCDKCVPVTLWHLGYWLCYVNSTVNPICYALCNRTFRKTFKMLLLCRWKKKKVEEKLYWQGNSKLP
In short: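 IC50 values derive from percent maximal acetylcholine response after an EC80 ACh addition, measured as kinetic calcium fluorescence (static ratio, max−min). Test compounds were added 140 s before agonist. Cells: stable hM5-CHO in HEPES-buffered HBSS with 2.5 mM probenecid, pH 7.4; ≥3 independent triplicate determinations.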

Structure (SMILES)	IC50
Cc1cc2nccn2cc1C1CCN(S(=O)(=O)c2cc3c(cc2F)OCC3)CC1 [Compound 67, 6-(1-((6-fluoro-2,3-dihydrobenzofuran-5-yl)sulfonyl)piperidin-4-yl)-7-methylimidazo[1,2-a]pyridine]	2.6 µM
Cc1cc2nccn2cc1C1CCN(S(=O)(=O)c2ccc3ncsc3c2)CC1 [Compound 68, 6-((4-(7-methylimidazo[1,2-a]pyridin-6-yl)piperidin-1-yl)sulfonyl)benzo[d]thiazole]	6 µM
Cc1ccc(S(=O)(=O)N2CCC(c3cn4ccnc4cc3C)CC2)cn1 [Compound 69, 7-methyl-6-(1-((6-methylpyridin-3-yl)sulfonyl)piperidin-4-yl)imidazo[1,2-a]pyridine]	> 10 µM
Cc1cc2nccn2cc1C1CCN(S(=O)(=O)c2ccc(Cl)nc2)CC1 [Compound 70, 6-(1-((6-chloropyridin-3-yl)sulfonyl)piperidin-4-yl)-7-methylimidazo[1,2-a]pyridine]	> 10 µM
Cc1cc2nccn2cc1C1CCN(S(=O)(=O)c2cn(C)nc2C)CC1 [Compound 71, 6-(1-((1,3-dimethyl-1H-pyrazol-4-yl)sulfonyl)piperidin-4-yl)-7-methylimidazo[1,2-a]pyridine]	> 10 µM
[2H]C1([2H])Oc2ccc(S(=O)(=O)N3CC=C(c4cn5ncnc5cc4C)CC3)cc2C1([2H])[2H] [Compound 72, 6-(1-((2,3-dihydrobenzofuran-5-yl-2,2,3,3-d4)sulfonyl)-1,2,3,6-tetrahydropyridin-4-yl)-7-methyl-[1,2,4]triazolo[1,5-a]pyridine]	0.699 µM
Cc1cc2ncnn2cc1C1CCN(S(=O)(=O)c2ccc3c(c2)C(C)CO3)CC1 (stereo not drawn) [Compound 73, 7-methyl-6-(1-((3-methyl-2,3-dihydrobenzofuran-5-yl)sulfonyl)piperidin-4-yl)-[1,2,4]triazolo[1,5-a]pyridine]	0.069 µM
Cc1cc2ncnn2cc1C1CCN(S(=O)(=O)c2ccc3c(c2)C(C)(C)CO3)CC1 [Compound 74, 6-(1-((3,3-dimethyl-2,3-dihydrobenzofuran-5-yl)sulfonyl)piperidin-4-yl)-7-methyl-[1,2,4]triazolo[1,5-a]pyridine]	> 10 µM
Cc1nc2cc(C)c(C3CCN(S(=O)(=O)c4ccc5c(c4)CCO5)CC3)cn2n1 [Compound 76, 6-(1-((2,3-dihydrobenzofuran-5-yl)sulfonyl)piperidin-4-yl)-2,7-dimethyl-[1,2,4]triazolo[1,5-a]pyridine]	> 10 µM
Cc1nc2cc(C)c(C3CCN(S(=O)(=O)c4cc5c(cc4F)OCC5)CC3)cn2n1 [Compound 77, 6-(1-((6-fluoro-2,3-dihydrobenzofuran-5-yl)sulfonyl)piperidin-4-yl)-2,7-dimethyl-[1,2,4]triazolo[1,5-a]pyridine]	> 10 µM
Cc1nc2cc(C)c(C3CCN(S(=O)(=O)c4ccc5ncsc5c4)CC3)cn2n1 [Compound 78, 6-((4-(2,7-dimethyl-[1,2,4]triazolo[1,5-a]pyridin-6-yl)piperidin-1-yl)sulfonyl)benzo[d]thiazole]	> 10 µM
Cc1nc2cc(C)c(C3CCN(S(=O)(=O)c4cn(C)nc4C)CC3)cn2n1 [Compound 79, 6-(1-((1,3-dimethyl-1H-pyrazol-4-yl)sulfonyl)piperidin-4-yl)-2,7-dimethyl-[1,2,4]triazolo[1,5-a]pyridine]	> 10 µM
COc1cc2ncnn2cc1C1CCN(S(=O)(=O)c2ccc3c(c2)CCO3)CC1 [Compound 80, 6-(1-((2,3-dihydrobenzofuran-5-yl)sulfonyl)piperidin-4-yl)-7-methoxy-[1,2,4]triazolo[1,5-a]pyridine]	> 10 µM
COc1cc2ncnn2cc1C1CCN(S(=O)(=O)c2cc3c(cc2F)OCC3)CC1 [Compound 81, 6-(1-((6-fluoro-2,3-dihydrobenzofuran-5-yl)sulfonyl)piperidin-4-yl)-7-methoxy-[1,2,4]triazolo[1,5-a]pyridine]	> 10 µM
COc1cc2ncnn2cc1C1CCN(S(=O)(=O)c2ccc3ncsc3c2)CC1 [Compound 82, 6-((4-(7-methoxy-[1,2,4]triazolo[1,5-a]pyridin-6-yl)piperidin-1-yl)sulfonyl)benzo[d]thiazole]	> 10 µM
COc1cc2ncnn2cc1C1CCN(S(=O)(=O)c2cn(C)nc2C)CC1 [Compound 83, 6-(1-((1,3-dimethyl-1H-pyrazol-4-yl)sulfonyl)piperidin-4-yl)-7-methoxy-[1,2,4]triazolo[1,5-a]pyridine]	> 10 µM
Cc1cc2ncnn2cc1C1=CCN(S(=O)(=O)c2cc3c(cc2C)OCC3C)CC1 (stereo not drawn) [Compound 84, 6-(1-((3,6-dimethyl-2,3-dihydrobenzofuran-5-yl)sulfonyl)-1,2,3,6-tetrahydropyridin-4-yl)-7-methyl-[1,2,4]triazolo[1,5-a]pyridine]	0.185 µM

Structure (SMILES)	IC50
Cc1cc2c(cc1S(=O)(=O)N1CCC(c3ccc4ncnn4c3C)CC1)C(C)CO2 (stereo not drawn) [Compound 85, 6-(1-((3,6-dimethyl-2,3-dihydrobenzofuran-5-yl)sulfonyl)piperidin-4-yl)-5-methyl-[1,2,4]triazolo[1,5-a]pyridine]	6.3 µM
Cc1cc2c(cc1S(=O)(=O)N1CCC(c3cc(C)c4ncnn4c3)CC1)C(C)CO2 (stereo not drawn) [Compound 86, 6-(1-((3,6-dimethyl-2,3-dihydrobenzofuran-5-yl)sulfonyl)piperidin-4-yl)-8-methyl-[1,2,4]triazolo[1,5-a]pyridine]	9.2 µM
Cc1nc2cc(C)c(C3CCN(S(=O)(=O)c4cc5c(cc4C)OCC5C)CC3)cn2n1 (stereo not drawn) [Compound 87]	1.3 µM
COc1cc2ncnn2cc1C1CCN(S(=O)(=O)c2cc3c(cc2C)OCC3C)CC1 (stereo not drawn) [Compound 88, 6-(1-((3,6-dimethyl-2,3-dihydrobenzofuran-5-yl)sulfonyl)piperidin-4-yl)-7-methoxy-[1,2,4]triazolo[1,5-a]pyridine]	0.804 µM
Cc1nc2cc(C)c(C3CCN(S(=O)(=O)c4ccc5c(c4)C(C)CO5)CC3)cn2n1 (stereo not drawn) [Compound 89, 2,7-dimethyl-6-(1-((3-methyl-2,3-dihydrobenzofuran-5-yl)sulfonyl)piperidin-4-yl)-[1,2,4]triazolo[1,5-a]pyridine]	2.1 µM
COc1cc2ncnn2cc1C1CCN(S(=O)(=O)c2ccc3c(c2)C(C)CO3)CC1 (stereo not drawn) [Compound 90, 7-methoxy-6-(1-((3-methyl-2,3-dihydrobenzofuran-5-yl)sulfonyl)piperidin-4-yl)-[1,2,4]triazolo[1,5-a]pyridine]	3.1 µM
[2H]C1([2H])Oc2ccc(S(=O)(=O)N3CCC(c4cn5nc(C)nc5cc4C)CC3)cc2C1([2H])[2H] [Compound 91, 6-(1-((2,3-dihydrobenzofuran-5-yl-2,2,3,3-d4)sulfonyl)piperidin-4-yl)-2,7-dimethyl-[1,2,4]triazolo[1,5-a]pyridine]	> 10 µM
[2H]C1([2H])Oc2ccc(S(=O)(=O)N3CCC(c4cn5ncnc5cc4OC)CC3)cc2C1([2H])[2H] [Compound 92, 6-(1-((2,3-dihydrobenzofuran-5-yl-2,2,3,3-d4)sulfonyl)piperidin-4-yl)-7-methoxy-[1,2,4]triazolo[1,5-a]pyridine]	> 10 µM
O=S(=O)(c1cc2c(cc1F)OCC2)N1CCC(c2cc3cc[nH]c3cn2)CC1 [Compound 93, 5-(1-((6-fluoro-2,3-dihydrobenzofuran-5-yl)sulfonyl)piperidin-4-yl)-1H-pyrrolo[2,3-c]pyridine]	> 10 µM
O=S(=O)(c1ccc(Cl)nc1)N1CCC(c2cc3cc[nH]c3cn2)CC1 [Compound 94, 5-(1-((6-chloropyridin-3-yl)sulfonyl)piperidin-4-yl)-1H-pyrrolo[2,3-c]pyridine]	> 10 µM
Cc1nn(C)cc1S(=O)(=O)N1CCC(c2cc3cc[nH]c3cn2)CC1 [Compound 95, 5-(1-((1,3-dimethyl-1H-pyrazol-4-yl)sulfonyl)piperidin-4-yl)-1H-pyrrolo[2,3-c]pyridine]	> 10 µM
Cc1cc2ncnn2cc1C1CCN(S(=O)(=O)c2ccccc2-c2ccno2)CC1 [Compound 96, 5-(2-((4-(7-methyl-[1,2,4]triazolo[1,5-a]pyridin-6-yl)piperidin-1-yl)sulfonyl)phenyl)isoxazole]	> 10 µM
Cc1cc2ncnn2cc1C1CCN(S(=O)(=O)c2ccccc2F)CC1 [Compound 97, 6-(1-((2-fluorophenyl)sulfonyl)piperidin-4-yl)-7-methyl-[1,2,4]triazolo[1,5-a]pyridine]	> 10 µM
O=S(=O)(c1ccc2c(c1)CCO2)N1CCC(c2nccs2)CC1 [Compound 98, 2-(1-((2,3-dihydrobenzofuran-5-yl)sulfonyl)piperidin-4-yl)thiazole]	> 10 µM
Cn1cc(S(=O)(=O)N2CCC(c3cn4ncnc4cc3C(F)(F)F)CC2)c(C(F)(F)F)n1 [Compound 99, 6-(1-((1-methyl-3-(trifluoromethyl)-1H-pyrazol-4-yl)sulfonyl)piperidin-4-yl)-7-(trifluoromethyl)-[1,2,4]triazolo[1,5-a]pyridine]	5.2 µM
Cc1cc2ncnn2cc1C1CCN(S(=O)(=O)c2cc3c(cc2C)OCC3C)CC1 (stereo not drawn) [Compound 100, 6-(1-((3,6-dimethyl-2,3-dihydrobenzofuran-5-yl)sulfonyl)piperidin-4-yl)-7-methyl-[1,2,4]triazolo[1,5-a]pyridine]	0.039 µM
